The record followed here is patent US20260262643A1, “HERBICIDAL BENZOXAZINES” (FMC CORPORATION, priority 2022, published 2026).

Like-named read-outs stand apart in the source and are kept apart here.

Assay [1] has as its system foxtail, giant. Briefly: Test A preemergence. In kind it is in vivo, Setaria faberi. The note with it: Setaria faberi, pre-emergence, 240 h, read-out: Plant response rating, Foxtail, Giant; for pest or weed control at 125 g/ha: 125 g ai/ha; for pest or weed control at 500 g/ha: 500 g ai/ha. In short, it runs like this: (§1)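 Plants were grown in loam and sand and treated preemergence or postemergence (one- to two-leaf stage, 2–10 cm) with compound in solvent plus surfactant. Response was scored against untreated controls after 10 greenhouse days, where 0 means no effect and 100 complete control.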

Assay [2] concerns goosegrass. Briefly: Test A preemergence. The assay is classed as in vivo, Eleusine indica. Conditions: Eleusine indica, pre-emergence, 240 h, read-out: Plant response rating, Goosegrass; for pest or weed control at 125 g/ha: 125 g ai/ha; for pest or weed control at 500 g/ha: 500 g ai/ha. In short, it runs like this:
as §1

Assay [3] deals with oat, wild. Briefly: Test A preemergence. The assay is classed as in vivo, Avena fatua. Conditions: Avena fatua, pre-emergence, 240 h, read-out: Plant response rating, Oat, Wild. In short, it runs like this: as §1
The test system of assay [4] is pigweed, palmer. Briefly: Test A preemergence. In kind it is in vivo, Amaranthus palmeri. Conditions: Amaranthus palmeri, pre-emergence, 240 h, read-out: Plant response rating, Pigweed, Palmer; for pest or weed control at 125 g/ha: 125 g ai/ha; for pest or weed control at 500 g/ha: 500 g ai/ha. In short, it runs like this: as §1
Assay [5] concerns ryegrass, Italian. Briefly: Test A preemergence. The assay is classed as in vivo, Lolium multiflorum. Conditions: Lolium multiflorum, pre-emergence, 240 h, read-out: Plant response rating, Ryegrass, Italian; for pest or weed control at 125 g/ha: 125 g ai/ha; for pest or weed control at 500 g/ha: 500 g ai/ha. In short, it runs like this: as §1
Assay [6] relates to corn. Briefly: Test A postemergence. In kind it is in vivo, Zea mays. Conditions: Zea mays, post-emergence, 240 h; for Corn plant response rating (crop injury, 0 = no effect, 100 = complete kill) at 500 g/ha: 500 g ai/ha. In short, it runs like this: as §1
Assay [7] concerns oat, wild. Briefly: Test A postemergence. In kind it is in vivo, Avena fatua. The note with it: Avena fatua, post-emergence, 240 h; for pest or weed control at 125 g/ha: 125 g ai/ha; for pest or weed control at 500 g/ha: 500 g ai/ha. In short, it runs like this:
as §1

For assay [8], the system named is pigweed, palmer. Briefly: Test A postemergence. The assay is classed as in vivo, Amaranthus palmeri. The note with it: Amaranthus palmeri, post-emergence, 240 h; for pest or weed control at 125 g/ha: 125 g ai/ha; for pest or weed control at 500 g/ha: 500 g ai/ha. In short, it runs like this: as §1
Assay [9] has as its system ryegrass, Italian. Briefly: Test A postemergence. The note with it: Lolium multiflorum, post-emergence, 240 h; for pest or weed control at 125 g/ha: 125 g ai/ha; for pest or weed control at 500 g/ha: 500 g ai/ha. The assay is classed as in vivo, Lolium multiflorum. In short, it runs like this:
as §1

The subject of assay [10] is soybean. Briefly: Test A postemergence. In kind it is in vivo, Glycine max. Conditions: Glycine max, post-emergence, 240 h; for plant injury at 125 g/ha: 125 g ai/ha; for plant injury at 500 g/ha: 500 g ai/ha. In short, it runs like this:
as §1

The subject of assay [11] is galium. Briefly: Test A postemergence. The assay is classed as in vivo, Galium aparine. The note with it: Galium, post-emergence, 240 h; for pest or weed control at 125 g/ha: 125 g ai/ha; for pest or weed control at 500 g/ha: 500 g ai/ha. In short, it runs like this:
as §1

Assay [12] relates to barnyardgrass. Briefly: Test B flooded paddy test. Conditions: Echinochloa crus-galli, 312 h, 250 g ai/ha, Flood, 13 days, 0 to 100 scale (0 no effect, 100 complete control); read-out: Plant response rating, Barnyardgrass. In kind it is in vivo, Echinochloa crus-galli. In short, it runs like this: (§2)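 Application into standing water (3 cm above soil) at the two-leaf stage; flood depth held constant. Evaluation: day 13, visual comparison with controls, 0 = no injury, 100 = complete control.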

The test system of assay [13] is sedge, umbrella. Briefly: Test B flooded paddy test. The assay is classed as in vivo, Cyperus difformis. The note with it: Cyperus difformis, 312 h; 250 g ai/ha, Flood, 13 days, 0 to 100 scale (0 no effect, 100 complete control); read-out: Plant response rating, Sedge, Umbrella. In short, it runs like this:
as §2

In assay [14] the test system is horseweed. Briefly: Test A postemergence. The assay is classed as in vivo, Erigeron canadensis. The note with it: Erigeron canadensis, post-emergence, 240 h, postemergence, 10 days, 0 to 100 scale (0 no effect, 100 complete control). In short, it runs like this:
as §1

The mark [15] stands for this setting: visual injury after 10 days, 0 to 100 scale, 0 is no effect, 100 is complete control.
The mark [16] stands for this setting: 0 to 100 scale (0 no effect, 100 complete control), 10 days.
The mark [17] stands for this setting: postemergence, 10 days, visual injury, 0 to 100 scale (0 no effect, 100 complete control), read-out: Plant response rating, Oat, Wild.
The mark [18] stands for this setting: postemergence, 10 days, visual injury, 0 to 100 scale (0 no effect, 100 complete control), read-out: Plant response rating, Pigweed, Palmer.
Where [19] appears, read: postemergence, 10 days, visual injury, 0 to 100 scale (0 no effect, 100 complete control), read-out: Plant response rating, Ryegrass, Italian.
[20] abbreviates: postemergence, 10 days, visual injury, 0 to 100 scale (0 no effect, 100 complete control), read-out: Plant response rating, Soybean.
Where [21] appears, read: postemergence, 10 days, visual injury, 0 to 100 scale (0 no effect, 100 complete control), read-out: Plant response rating, Galium.

For the compound `Cc1cccc2c1O[C@@H](C)CN2C(=O)c1cccc(-n2cnc(Br)n2)c1` [Compound 61, [3-(3-Bromo-1H-1,2,4-triazol-1-yl)phenyl][(2S)-2,3-dihydro-2,8-dimethyl-4H-1,4-benzoxazin-4-yl]methanone], the pest or weed control at 125 g/ha was 90% in assay [1] (setting [15]); 90% in assay [2] (setting [15]); 30% in [3] (125 g ai/ha, visual injury after 10 days, 0 to 100 scale, 0 is no effect, 100 is complete control); 60% in assay [4] (setting [15]); 90% in assay [5] (setting [15]); 10% in [7] (setting [17]). In addition, the pest or weed control at 125 g/ha in assay [8] (setting [18]) was determined as 40%; in [9] (setting [19]), 40%; in [11] (setting [21]), 70%. Also, the pest or weed control at 500 g/ha in assay [1] (setting [16]) was 90%; in [2] (setting [16]), 90%; in assay [3] (500 g ai/ha, 0 to 100 scale (0 no effect, 100 complete control), 10 days) it was 30%; in [4] (setting [16]), 90%; in assay [5] (setting [16]) it was 100%; in assay [7] (Postemergence, 0 to 100 scale, read-out: Plant response rating, Oat, Wild), 20%. The pest or weed control at 500 g/ha in [8] (Postemergence, 0 to 100 scale, read-out: Plant response rating, Pigweed, Palmer) is 50%; in assay [9] (Postemergence, 0 to 100 scale, read-out: Plant response rating, Ryegrass, Italian), 40%; in assay [11] (Postemergence, 0 to 100 scale, read-out: Plant response rating, Galium) it was 100%. This compound also displayed a Corn plant response rating (crop injury, 0 = no effect, 100 = complete kill) at 125 g/ha in [6] (125 g ai/ha, postemergence, 10 days, visual injury, 0 to 100 scale (0 no effect, 100 complete control)) of 10%. Moreover, the Corn plant response rating (crop injury, 0 = no effect, 100 = complete kill) at 500 g/ha in assay [6] (Postemergence, 0 to 100 scale) was found to be 10%. In [10] (setting [20]), the plant injury at 125 g/ha was found to be 100%. In addition, in assay [10] (Postemergence, 0 to 100 scale, read-out: Plant response rating, Soybean), the plant injury at 500 g/ha was 100%. Also, the values for the pest or weed control at 250 g/ha in assay [12] and in assay [13] were 0% and 45%, respectively.
For `Cc1ccc(-n2ncnc2C)cc1C(=O)N1C[C@H](C)Oc2c(Cl)cccc21` (single isomer, unassigned) [Compound 126], the pest or weed control at 125 g/ha in assay [1] (setting [15]) turned out to be 60%; in assay [2] (setting [15]), 20%; in assay [4] (setting [15]), 20%; in assay [5] (setting [15]) it was 40%; in assay [7] (postemergence, 10 days, 0 to 100 scale (0 no effect, 100 complete control), read-out: Oat, Wild plant response rating), 0%; in assay [8] (postemergence, 10 days, 0 to 100 scale (0 no effect, 100 complete control), read-out: Pigweed, Palmer plant response rating), 0%. For the same compound, the pest or weed control at 125 g/ha turned out to be 0% in assay [9] (postemergence, 10 days, 0 to 100 scale (0 no effect, 100 complete control), read-out: Ryegrass, Italian plant response rating); 50% in [11] (postemergence, 10 days, 0 to 100 scale (0 no effect, 100 complete control), read-out: Galium plant response rating); 0% in assay [14] (125 g ai/ha, read-out: Horseweed plant response rating). Moreover, the pest or weed control at 500 g/ha in [1] (setting [15]) was 100%; in assay [2] (setting [15]), 90%; in assay [4] (setting [15]) it was 60%; in assay [5] (setting [15]), 70%; in assay [7] (setting [17]) it was 50%; in assay [8] (setting [18]), 30%. The pest or weed control at 500 g/ha in [9] (setting [19]) amounted to 50%; in [11] (setting [21]) it was 70%; in assay [14] (500 g ai/ha, visual injury, read-out: Plant response rating, Horseweed), 40%. Further, the plant injury at 125 g/ha was 0% in assay [6] (125 g ai/ha, postemergence, 10 days, 0 to 100 scale (0 no effect, 100 complete control), read-out: Corn plant response rating) and 40% in assay [10] (postemergence, 10 days, 0 to 100 scale (0 no effect, 100 complete control), read-out: Soybean plant response rating). In assay [6] (postemergence, 10 days, visual injury, 0 to 100 scale (0 no effect, 100 complete control)), this compound returned a Corn plant response rating (crop injury, 0 = no effect, 100 = complete kill) at 500 g/ha of 10%. Also, the plant injury at 500 g/ha in assay [10] (setting [20]) came out at 60%. For the same compound, the pest or weed control at 250 g/ha in [12] and in assay [13] was 0% each time.
